The target of series [1] is Receptor-interacting serine/threonine-protein kinase 2 (Homo sapiens) (UniProt O43353). Nature of the series: Inhibition of RIPK2 (unknown origin) at 1 uM relative to control.
The nature of series [2]: Half life in C57BL/6 mouse plasma at 5 mg/kg, iv. It is filed as ADME, organism-based.
Series [3] can be described thus: Volume of distribution in C57BL/6 mouse plasma at 5 mg/kg, iv. The series is classed as ADME, organism-based.
A short description of series [4]: Clearance in C57BL/6 mouse plasma at 5 mg/kg, iv. The series is classed as ADME, organism-based.
The target in series [5] is T1, Receptor-interacting serine/threonine-protein kinase 3 (Homo sapiens, UniProt Q9Y572). Put plainly: Inhibition of human RIPK3 using MBP as substrate by [gamma33-ATP] based radiometric assay.
T1 sequence (Q9Y572 whole entry): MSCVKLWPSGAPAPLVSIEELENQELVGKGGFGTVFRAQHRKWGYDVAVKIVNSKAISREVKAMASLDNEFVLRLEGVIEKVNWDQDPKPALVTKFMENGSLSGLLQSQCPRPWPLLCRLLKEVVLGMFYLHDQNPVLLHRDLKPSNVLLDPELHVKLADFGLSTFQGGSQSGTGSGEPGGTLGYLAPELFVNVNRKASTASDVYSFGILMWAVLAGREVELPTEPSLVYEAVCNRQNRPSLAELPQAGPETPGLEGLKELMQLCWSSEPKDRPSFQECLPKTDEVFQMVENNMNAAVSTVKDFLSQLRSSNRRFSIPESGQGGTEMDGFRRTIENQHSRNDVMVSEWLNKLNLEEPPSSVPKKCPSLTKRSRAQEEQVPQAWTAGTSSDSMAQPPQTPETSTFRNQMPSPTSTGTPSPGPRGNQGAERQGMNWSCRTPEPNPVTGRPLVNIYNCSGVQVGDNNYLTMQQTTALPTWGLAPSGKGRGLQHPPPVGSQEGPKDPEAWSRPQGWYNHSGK
Series [6] deals with Jurkat. Put plainly: Anti-necroptotic activity in FADD null human Jurkat cells assessed as inhibition of T/S/Z induced necroptosis by CellTiter-Glo Luminescent Cell Viability assay. It is filed as functional, cell-based. (In general: Cellular ATP, detected with luciferase, serves as a proxy for viable cell number.)
The next series relates to HT-29. Put plainly: Anti-necroptotic activity in human HT-29 cells assessed as inhibition of T/S/Z induced necroptosis by CellTiter-Glo Luminescent Cell Viability assay. It is filed as functional, cell-based.
Series [7] has as its target T2, Receptor-interacting serine/threonine-protein kinase 1 (Homo sapiens, UniProt Q13546).
T2 sequence (Q13546 whole entry): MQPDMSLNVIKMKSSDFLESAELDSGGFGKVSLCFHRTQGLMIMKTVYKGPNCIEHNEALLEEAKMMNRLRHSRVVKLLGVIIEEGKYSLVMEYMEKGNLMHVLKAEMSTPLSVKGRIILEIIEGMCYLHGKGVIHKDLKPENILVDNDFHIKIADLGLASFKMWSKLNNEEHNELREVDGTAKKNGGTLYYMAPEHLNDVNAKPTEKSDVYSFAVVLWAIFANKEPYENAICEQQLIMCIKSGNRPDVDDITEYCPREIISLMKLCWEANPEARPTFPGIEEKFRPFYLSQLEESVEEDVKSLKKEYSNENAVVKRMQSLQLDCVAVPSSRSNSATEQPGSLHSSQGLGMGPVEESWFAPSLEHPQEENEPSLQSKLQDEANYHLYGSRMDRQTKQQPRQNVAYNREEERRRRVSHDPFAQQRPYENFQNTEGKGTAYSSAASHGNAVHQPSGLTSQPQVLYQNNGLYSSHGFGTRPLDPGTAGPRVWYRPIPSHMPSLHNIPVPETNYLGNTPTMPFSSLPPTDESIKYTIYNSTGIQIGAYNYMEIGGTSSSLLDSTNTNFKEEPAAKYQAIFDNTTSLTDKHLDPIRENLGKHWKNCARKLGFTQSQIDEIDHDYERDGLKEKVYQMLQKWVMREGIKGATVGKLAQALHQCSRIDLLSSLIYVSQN
Nature of the series: Binding affinity to RIPK1 (unknown origin) by ADP-GlO assay.

Series [8] can be described thus: Volume of distribution at steady state in 2 hrs fasted CD-1 mouse at 3 mg/kg, po. It is filed as ADME, organism-based. The note with it: in vivo.
Series [9] can be described thus: AUC (last) in 2 hrs fasted CD-1 mouse at 3 mg/kg, po. The settings on record: in vivo. It is filed as ADME, organism-based. Further details: dose 3 mg/kg, route po.
Series [10] is described as follows: Oral bioavailability in 2 hrs fasted CD-1 mouse at 3 mg/kg. It is filed as ADME, organism-based. The settings on record: in vivo.
A short description of series [11]: Clearance in 2 hrs fasted CD-1 mouse at 3 mg/kg, po. The settings on record: in vivo. It is filed as ADME, organism-based.
Series [12] can be described thus: Metabolic stability in rat liver microsomes assessed as half life. It is filed as ADME, Microsome. A general note: Microsomes from liver hold many membrane-bound enzymes, among them those of drug oxidation.
A further series concerns the target CYP2C9 (Homo sapiens, UniProt P11712). Put plainly: Inhibition of CYP2C9 (unknown origin) at 10 uM. The series is classed as ADME.
Series [13] can be described thus: Metabolic stability in mouse liver microsomes assessed as half life. It is filed as ADME, Microsome.
Another series concerns the target CYP3A4 (Homo sapiens, UniProt P08684). Put plainly: Inhibition of CYP3A4 (unknown origin) at 10 uM. It is filed as ADME.
For the next series, the target named is T3, CYP1A2 (Homo sapiens, UniProt P05177).
T3 sequence (P05177 whole entry): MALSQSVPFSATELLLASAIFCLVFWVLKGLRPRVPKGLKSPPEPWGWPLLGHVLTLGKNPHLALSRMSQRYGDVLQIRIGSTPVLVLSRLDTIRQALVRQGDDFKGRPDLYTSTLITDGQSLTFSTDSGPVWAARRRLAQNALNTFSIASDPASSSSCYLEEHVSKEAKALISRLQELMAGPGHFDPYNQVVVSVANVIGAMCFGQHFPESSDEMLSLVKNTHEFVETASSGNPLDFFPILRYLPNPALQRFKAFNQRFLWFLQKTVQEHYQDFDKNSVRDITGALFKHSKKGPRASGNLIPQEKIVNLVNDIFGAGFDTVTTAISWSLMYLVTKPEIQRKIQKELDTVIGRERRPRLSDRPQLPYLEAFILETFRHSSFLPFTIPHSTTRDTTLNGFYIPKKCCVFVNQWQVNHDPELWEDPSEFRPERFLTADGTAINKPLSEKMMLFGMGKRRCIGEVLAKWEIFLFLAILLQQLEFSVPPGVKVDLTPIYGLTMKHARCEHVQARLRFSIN
Nature of the series: Inhibition of CYP1A2 (unknown origin) at 10 uM. It is filed as ADME.

Series [14] can be described thus: AUC in ICR mouse at 10 mg/kg, po. The series is classed as ADME, organism-based. Further details: dose 10 mg/kg, route po. The note with it: in vivo.
A short description of series [15]: Metabolic stability in mouse liver microsomes assessed as intrinsic clearance. The series is classed as ADME, Microsome. The note with it: read-out: CLH.
The target of series [16] is Voltage-gated inwardly rectifying potassium channel KCNH2 (Homo sapiens, UniProt Q12809). Put plainly: Inhibition of hERG at 10 uM. It is filed as toxicity. A general note: The hERG channel carries a current that helps repolarise heart muscle cells.
Chain of Voltage-gated inwardly rectifying potassium channel KCNH2 (Q12809 whole entry): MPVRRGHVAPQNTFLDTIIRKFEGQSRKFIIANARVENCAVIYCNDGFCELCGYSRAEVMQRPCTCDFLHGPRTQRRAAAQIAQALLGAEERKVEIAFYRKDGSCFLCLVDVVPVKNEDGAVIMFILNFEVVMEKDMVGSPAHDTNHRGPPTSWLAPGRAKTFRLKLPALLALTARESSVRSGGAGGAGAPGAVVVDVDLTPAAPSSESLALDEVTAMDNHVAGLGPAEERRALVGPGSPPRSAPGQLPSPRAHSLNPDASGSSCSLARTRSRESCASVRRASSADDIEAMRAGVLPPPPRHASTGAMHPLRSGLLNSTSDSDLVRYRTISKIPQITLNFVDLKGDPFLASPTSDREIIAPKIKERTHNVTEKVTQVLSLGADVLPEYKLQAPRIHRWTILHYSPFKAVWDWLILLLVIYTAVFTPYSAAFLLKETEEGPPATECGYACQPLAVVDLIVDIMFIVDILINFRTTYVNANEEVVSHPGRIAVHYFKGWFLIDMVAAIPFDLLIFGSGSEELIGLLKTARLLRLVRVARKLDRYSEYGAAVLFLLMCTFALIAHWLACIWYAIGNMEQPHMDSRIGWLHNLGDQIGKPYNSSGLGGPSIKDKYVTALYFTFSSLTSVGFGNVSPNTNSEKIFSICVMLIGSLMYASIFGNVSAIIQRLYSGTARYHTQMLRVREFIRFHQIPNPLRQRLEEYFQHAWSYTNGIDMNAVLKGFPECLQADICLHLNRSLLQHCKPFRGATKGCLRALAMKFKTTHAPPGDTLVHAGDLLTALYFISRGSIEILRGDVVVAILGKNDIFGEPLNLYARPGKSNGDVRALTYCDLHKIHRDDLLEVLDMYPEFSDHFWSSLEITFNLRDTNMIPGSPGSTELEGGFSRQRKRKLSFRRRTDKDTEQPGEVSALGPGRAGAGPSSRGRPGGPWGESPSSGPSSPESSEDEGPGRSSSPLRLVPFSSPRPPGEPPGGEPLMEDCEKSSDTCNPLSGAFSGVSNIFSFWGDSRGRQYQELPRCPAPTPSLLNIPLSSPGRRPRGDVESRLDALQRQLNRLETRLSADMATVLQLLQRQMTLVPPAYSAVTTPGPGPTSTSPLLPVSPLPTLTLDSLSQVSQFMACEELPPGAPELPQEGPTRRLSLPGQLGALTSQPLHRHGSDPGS
The nature of series [17]: Clearance in ICR mouse at 2 mg/kg, iv. The series is classed as ADME, organism-based. The settings on record: in vivo.
A short description of series [18]: Half life in ICR mouse at 2 mg/kg, iv. The series is classed as ADME, organism-based. The note with it: in vivo.
A further series deals with CYP2D6 (Homo sapiens, UniProt P10635). Nature of the series: Inhibition of CYP2D6 (unknown origin) at 10 uM. The series is classed as ADME.
Chain of CYP2D6 (P10635 whole entry): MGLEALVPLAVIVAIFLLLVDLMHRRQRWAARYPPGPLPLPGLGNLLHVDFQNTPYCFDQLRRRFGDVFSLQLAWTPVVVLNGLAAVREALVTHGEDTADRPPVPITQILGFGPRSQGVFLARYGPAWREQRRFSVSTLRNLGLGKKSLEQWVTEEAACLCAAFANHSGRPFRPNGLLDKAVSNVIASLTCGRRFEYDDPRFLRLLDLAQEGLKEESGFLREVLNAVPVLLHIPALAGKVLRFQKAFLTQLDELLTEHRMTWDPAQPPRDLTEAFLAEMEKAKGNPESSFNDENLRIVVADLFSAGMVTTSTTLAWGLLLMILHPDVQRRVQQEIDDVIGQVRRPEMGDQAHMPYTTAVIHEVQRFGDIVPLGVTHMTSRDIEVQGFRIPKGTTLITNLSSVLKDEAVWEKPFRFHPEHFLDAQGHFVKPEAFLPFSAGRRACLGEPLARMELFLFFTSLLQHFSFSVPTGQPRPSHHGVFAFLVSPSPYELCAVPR
The nature of series [19]: Volume of distribution in ICR mouse at 2 mg/kg, iv. It is filed as ADME, organism-based. The note with it: in vivo.
The nature of series [20]: Metabolic stability in rat liver microsomes assessed as intrinsic clearance. It is filed as ADME, Microsome. The note with it: read-out: CLH.
The next series deals with CYP2C19 (Homo sapiens, UniProt P33261). Nature of the series: Inhibition of CYP2C19 (unknown origin) at 10 uM. It is filed as ADME.
Chain of CYP2C19 (P33261 whole entry): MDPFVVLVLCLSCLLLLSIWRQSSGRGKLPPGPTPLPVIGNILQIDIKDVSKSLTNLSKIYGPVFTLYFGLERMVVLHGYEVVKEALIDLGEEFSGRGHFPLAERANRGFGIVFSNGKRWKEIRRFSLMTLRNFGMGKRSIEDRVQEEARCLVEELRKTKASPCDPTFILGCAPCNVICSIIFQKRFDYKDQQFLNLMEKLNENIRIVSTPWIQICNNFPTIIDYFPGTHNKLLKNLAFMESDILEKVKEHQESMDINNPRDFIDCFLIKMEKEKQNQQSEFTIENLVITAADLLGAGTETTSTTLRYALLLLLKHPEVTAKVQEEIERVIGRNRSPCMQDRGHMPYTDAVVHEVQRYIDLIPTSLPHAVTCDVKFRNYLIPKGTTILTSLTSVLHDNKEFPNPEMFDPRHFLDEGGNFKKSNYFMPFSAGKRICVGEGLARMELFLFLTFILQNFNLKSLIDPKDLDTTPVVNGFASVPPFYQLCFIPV
Series [21] addresses T1, Receptor-interacting serine/threonine-protein kinase 3. Put plainly: Inhibition of RIPK3 (unknown origin) expressed in NIH3T3 cells assessed as inhibition of dimerizer-induced pMLKL level by Western blot analysis. The series is classed as cell-based.
A short description of series [22]: Anti-necroptotic activity in mouse BMDM cells assessed as inhibition of TNF/zVAD.fmk induced necroptosis pretreated for 30 mins measured after 19 to 21 hrs by CellTiter-Glo Luminescent Cell Viability assay.
Series [23] relates to Jurkat. Nature of the series: Anti-necroptotic activity in FADD-deficient human Jurkat cells assessed as reduction in cell growth preincubated for 30 mins followed by TNFalpha stimulation incubated overnight by CellTiter-Glo assay. The series is classed as functional, cell-based.
Series [24] is described as follows: Anti-necroptotic activity in mouse dermal fibroblast assessed as inhibition in T/S/Q induced necroptosis measured by flow cytometry. The series is classed as functional, cell-based.

pEC50, pIC50, pKd: −log10 of the molar value. Where “and” joins values, the source holds several entries; their conditions need not be identical. Equal entries are not always repeated.

One may read the inhibition as the percentage by which the read-out fell short of the control. A high value points to a response far below the control. The term half-life denotes how long it takes for the measured level to halve. In general, Vd refers to the apparent volume that relates the amount in the body to the concentration in plasma or blood. Low readings indicate confinement near the circulation, high ones extensive tissue distribution. By clearance is commonly meant the rate of elimination divided by the concentration. A word on the pEC50: it is −log10 of the EC50, conventionally taken in molar units. As usually defined, the pIC50 is −log10 of the IC50, conventionally taken in molar units. Usually pKd stands for −log10 of the Kd, conventionally taken in molar units. A high value points to a low Kd. As usually defined, the bioavailability is dose-corrected exposure relative to a reference, in per cent. A high value points to good availability. For orientation: CL/F means clearance divided by bioavailability, as obtained after extravascular dosing. In general, AUC refers to the area under the concentration-time curve, a measure of exposure. Read a high AUC as high exposure.

Chain of Receptor-interacting serine/threonine-protein kinase 2 (Homo sapiens) (O43353 whole entry): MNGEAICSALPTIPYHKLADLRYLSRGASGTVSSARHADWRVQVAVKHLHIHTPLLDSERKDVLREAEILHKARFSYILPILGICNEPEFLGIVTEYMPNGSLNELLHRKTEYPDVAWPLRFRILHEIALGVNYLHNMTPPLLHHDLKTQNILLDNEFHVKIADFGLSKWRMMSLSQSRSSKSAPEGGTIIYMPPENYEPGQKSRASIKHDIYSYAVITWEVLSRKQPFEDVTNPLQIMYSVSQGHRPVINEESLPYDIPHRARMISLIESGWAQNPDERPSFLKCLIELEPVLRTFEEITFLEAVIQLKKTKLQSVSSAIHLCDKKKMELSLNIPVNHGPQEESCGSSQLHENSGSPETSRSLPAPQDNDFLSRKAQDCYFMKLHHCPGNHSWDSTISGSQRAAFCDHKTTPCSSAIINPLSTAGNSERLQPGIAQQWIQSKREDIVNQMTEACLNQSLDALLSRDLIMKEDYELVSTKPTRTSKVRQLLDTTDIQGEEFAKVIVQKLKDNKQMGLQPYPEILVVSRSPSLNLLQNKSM
Chain of CYP2C9 (P11712 whole entry): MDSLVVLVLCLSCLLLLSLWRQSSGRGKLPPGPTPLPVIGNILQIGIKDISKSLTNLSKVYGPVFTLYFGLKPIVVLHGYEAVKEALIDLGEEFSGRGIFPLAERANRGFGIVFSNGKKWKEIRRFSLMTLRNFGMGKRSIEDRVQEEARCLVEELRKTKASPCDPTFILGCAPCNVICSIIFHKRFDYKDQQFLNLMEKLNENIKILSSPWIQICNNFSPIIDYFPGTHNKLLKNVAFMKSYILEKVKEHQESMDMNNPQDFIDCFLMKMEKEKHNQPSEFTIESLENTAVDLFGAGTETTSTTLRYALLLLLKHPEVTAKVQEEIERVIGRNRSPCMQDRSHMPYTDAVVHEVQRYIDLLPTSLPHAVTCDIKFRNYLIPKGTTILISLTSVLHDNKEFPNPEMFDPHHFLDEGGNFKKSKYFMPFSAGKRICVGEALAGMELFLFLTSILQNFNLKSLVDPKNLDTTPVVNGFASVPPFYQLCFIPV
Chain of CYP3A4 (P08684 whole entry): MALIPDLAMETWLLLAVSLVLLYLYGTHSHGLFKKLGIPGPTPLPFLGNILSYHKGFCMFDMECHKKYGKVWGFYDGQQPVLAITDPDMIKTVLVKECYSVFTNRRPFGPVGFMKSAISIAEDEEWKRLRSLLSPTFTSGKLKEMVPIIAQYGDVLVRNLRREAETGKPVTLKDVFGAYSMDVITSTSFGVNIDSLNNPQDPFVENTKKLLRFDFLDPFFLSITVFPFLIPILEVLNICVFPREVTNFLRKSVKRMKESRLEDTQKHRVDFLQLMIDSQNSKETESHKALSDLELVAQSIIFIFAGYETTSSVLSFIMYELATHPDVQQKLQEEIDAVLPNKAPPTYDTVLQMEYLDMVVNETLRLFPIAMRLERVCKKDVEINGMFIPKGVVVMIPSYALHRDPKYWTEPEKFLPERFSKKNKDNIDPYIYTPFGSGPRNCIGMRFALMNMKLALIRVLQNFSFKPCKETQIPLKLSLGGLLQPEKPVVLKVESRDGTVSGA

In the case of `Cc1cc(-c2cnc(N)c3c(-c4ccc5scnc5c4)csc23)n(C)n1`, the inhibition in series [1] worked out at 84%.

In turn, `CC(C)S(=O)(=O)c1ccc2nccc(Nc3ccc4scnc4c3)c2c1` displayed an inhibition in [1] of 76%.

With `COc1cc2c(cn1)N(C)C(=O)[C@@H](NC(=O)c1nc3n(n1)[C@H](c1ccccc1)CC3)CC2`, the half-life in [2] was 31.8 min. Besides, in [3], the Vd turned out to be 1.84 L/kg. The clearance in [4] came to 49.2 mL/min/kg.

With `Cc1ccc(Oc2ccnc3cc(-c4cnn(C5CCNCC5)c4)ccc23)cc1`, the negative logarithm of the EC50 (pEC50) in [5] is 7.68.

Take `COc1nccnc1NS(=O)(=O)c1ccc(NC(=O)/C=C/c2ccc([N+](=O)[O-])s2)cc1`: the pIC50 in the series on Jurkat [6] was > 6.00; in the series with HT-29, > 6.00 and 6.91.

Consider `N#Cc1c(Oc2ccc(F)c(NC(=O)Cc3cccc(C(F)(F)F)c3)c2)ccc2nc(NC(=O)C3CC3)sc12`, for which the pKd in series [7] was 6.98.

`CN1C(=O)[C@@H](NC(=O)c2nc(Cc3ccccc3)n[nH]2)COc2ccc(C#CC3CC3)cc21` yielded a Vdss in series [8] of 0.902 L/kg. Besides, in series [9], the AUClast was 15000 ng·h/mL. Besides, the bioavailability in [10] came out at 99%. For the same compound, in [11], the CL/F was determined as 3.54 mL/min/kg.

For the compound `Cl.O=S1(=O)C=C(C2CC2)c2cc3nccc(Nc4ccc5scnc5c4)c3cc21`, the half-life in series [12] is 36 min; in series [13] it was 26 min; in series [18] it was 90 min. Further, the inhibition at 10 µM at CYP2C9, on CYP3A4, against CYP1A2, on CYP2D6 and at CYP2C19 was < 10% each time. In series [14], this compound showed an AUC of 8200 ng·h/mL. For the same compound, the CLint scaled in series [15] was 212 mL/min/kg; in series [20], 67 mL/min/kg. In series [16], the pIC50 is < 5.00. For the same compound, the clearance in [17] was found to be 33 mL/min/kg. For the same compound, in series [19], the distribution volume (Vd) stood at 4.4 L/kg.

Take `Cc1ccc(O)cc1Nc1ccnc2cc(-c3ccccn3)ccc12`: the pEC50 in [21] is 7.13.

In the case of `CC(C)(C)C(=O)N1N=CC[C@H]1c1ccccc1`, in [22], the pIC50 is 8.52.

As to `CN(c1ccc(NC(=O)Nc2ccc(OC(F)(F)F)cc2)cc1)c1ccnc(Nc2cccc(S(N)(=O)=O)c2)n1` [GW806742X], in the series on Jurkat [23], the pEC50 was 5.73. In series [24], the pIC50 is > 7.30.

The values above are taken from ChEMBL document CHEMBL5338727, “From (Tool)Bench to Bedside: The Potential of Necroptosis Inhibitors” (J Med Chem, 2023).
